Results on 28 compounds are retold here after patent US20240150356A1, “Pyrimidine amide compounds and use thereof” (ALPHALA CO., LTD., priority 2019, published 2024).

Where only a bound is given, the exact number is not on record here.

The subject of the first assay is Hep3B cells (hepatocellular carcinoma cell line). Nature of the assay: In vitro MTS cell viability assay (NCI-60 methodology), Hep3B. It is filed as cell-based. Particulars: Homo sapiens, 48 h, Table 1, MTS, 2 days drug incubation, 50% reduction vs time zero, read-out: Hep3B LC50. The gist of the method: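 Hep3B cells given five 2-fold dilutions of compound for 2 days, with viability by MTS measured at time zero and at end. LC50 is the concentration giving a 50% fall in viable cells relative to the start of treatment, per NCI-60 formula.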
On the technique in general: Formazan colour is commonly taken as a measure of viable cells.
For the compound `CC(C)(C)n1ncc2c(NC(=O)c3ccc([N+](=O)[O-])s3)nc(-c3ccc(C(F)(F)F)cc3)nc21` [Compound 1-26, N-(1-(tert-butyl)-6-(4-(trifluoromethyl)phenyl)-1H-pyrazolo[3,4,d]pyrimidin-4-yl)-5-nitrothiophene-2-carboxamide], the LC50 – broadly, the concentration that kills 50% of the test population – was determined as 0.79 µM. As to `CN(C)c1ccc(-c2nc(NC(=O)c3ccc([N+](=O)[O-])s3)c3cnn(C)c3n2)cc1` [Compound 1-10, N-(6-(4-(dimethylamino)phenyl)-1-methyl-1H-pyrazolo[3,4-d]pyrimidin-4-yl)-5-nitrothiophene-2-carboxamide], the LC50 was above 5 µM.

Still in this assay, the particulars now being: Homo sapiens, 48 h, Table 2, MTS, 2 days drug incubation, 50% reduction vs time zero, read-out: Hep3B LC50.
As to `CC(C)(C)c1ccc(-c2nc(NC(=O)c3ccc([N+](=O)[O-])s3)nc3c2cnn3C(C)(C)C)cc1` [Compound 2-5, N-(1-(tert-butyl)-4-(4-(tert-butyl)phenyl)-1H-pyrazolo[3,4-d]pyrimidin-6-yl)-5-nitrothiophene-2-carboxamide], the median lethal concentration (LC50) is 12.9 µM.

Still in this assay, the particulars now being: Homo sapiens, 48 h, Table 3, MTS, 2 days drug incubation, 50% reduction vs time zero, read-out: Hep3B LC50.
With `Cc1nn(C)c2c(NC(=O)c3ccc([N+](=O)[O-])s3)nc(-c3ccc(OC(F)(F)F)cc3)nc12` [Compound 3-3, N-(1,3-dimethyl-5-(4-(trifluoromethoxy)phenyl)-1H-pyrazolo[4,3-d]pyrimidin-7-yl)-5-nitrothiophene-2-carboxamide], the LC50 was determined as 1.92 µM. As to `Cc1nn(C)c2c(NC(=O)c3ccc([N+](=O)[O-])s3)nc(-c3ccc(C(F)(F)F)cc3)nc12` [Compound 3-1, N-(1,3-dimethyl-5-(4-(trifluoromethyl)phenyl)-1H-pyrazolo[4,3-d]pyrimidin-7-yl)-5-nitrothiophene-2-carboxamide], the LC50 was 2.22 µM.

The assay is the same for the next values; noted with them: Homo sapiens, 48 h, Table 4, MTS, 2 days drug incubation, 50% reduction vs time zero, read-out: Hep3B LC50.
Regarding `Cc1csc2c(NC(=O)c3ccc([N+](=O)[O-])s3)nc(N3CCC(F)(F)C3)nc12` [Compound 4-11, N-(2-(3,3-difluoropyrrolidin-1-yl)-7-methylthieno[3,2-d]pyrimidin-4-yl)-5-nitrothiophene-2-carboxamide], the LC50 worked out at 3.18 µM.

Still in this assay, the particulars now being: Homo sapiens, 48 h, Table 5, MTS, 2 days drug incubation, 50% reduction vs time zero, read-out: Hep3B LC50.
In the case of `O=C(Nc1nc(C2CCNCC2)nc2c1cnn2-c1ccccc1)c1ccc([N+](=O)[O-])s1` [Compound 5-1, 5-nitro-N-(1-phenyl-6-(piperidin-4-yl)-1H-pyrazolo[3,4-d]pyrimidin-4-yl)thiophene-2-carboxamide], the median lethal concentration (LC50) was above 5 µM. On the same count and under the same terms, as for `O=C(Nc1nc(-c2cccc(F)c2)nc2c1cnn2-c1ccccc1)c1ccc([N+](=O)[O-])s1` [Compound 5-26, N-(6-(3-fluorophenyl)-1-phenyl-1H-pyrazolo[3,4-d]pyrimidin-4-yl)-5-nitrothiophene-2-carboxamide], the figure is 0.41 µM; as for `O=C(Nc1nc(-c2cccc(C(F)(F)F)c2)nc2c1cnn2-c1ccccc1)c1ccc([N+](=O)[O-])s1` [Compound 5-38, 5-nitro-N-(1-phenyl-6-(3-(trifluoromethyl)phenyl)-1H-pyrazolo[3,4-d]pyrimidin-4-yl)thiophene-2-carboxamide], 0.45 µM. The same measure, in the same setting: as for `O=C(Nc1nc(-c2ccc(Cl)s2)nc2c1cnn2-c1ccccc1)c1ccc([N+](=O)[O-])s1` [Compound 5-19, N-(6-(5-chlorothiophen-2-yl)-1-phenyl-1H-pyrazolo[3,4-d]pyrimidin-4-yl)-5-nitrothiophene-2-carboxamide], the figure is 0.17 µM.

Staying with this assay, now noted: Homo sapiens, 48 h, Table 6, MTS, 2 days drug incubation, 50% reduction vs time zero, read-out: Hep3B LC50.
`O=C(Nc1nc(-c2ccc3c(c2)OCO3)nc2c1cnn2-c1ccc(Cl)cc1)c1ccc([N+](=O)[O-])s1` [Compound 6-50, N-(6-(benzo[d][1,3]dioxol-5-yl)-1(4-chlorophenyl)-1H-pyrazolo[3,4-d]pyrimidin-4-yl)-5-nitrothiophene-2-carboxamide]: the LC50 turned out to be 0.16 µM. On the same count and under the same terms, to `CC(C)(C)c1ccc(-n2ncc3c(NC(=O)c4ccc([N+](=O)[O-])s4)nc(-c4ccc(F)cc4)nc32)cc1` [Compound 6-81, N-(1-(4-(tert-butyl)phenyl)-6-(4-fluorophenyl)-1H-pyrazolo[3,4-d]pyrimidin-4-yl)-5-nitrothiophene-2-carboxamide] belongs 0.94 µM. Still for that read-out and setting: to `CCC(C)(C)c1ccc(-c2nc(NC(=O)c3ccc([N+](=O)[O-])s3)c3cnn(-c4ccc(OC(F)(F)F)cc4)c3n2)cc1` [Compound 6-87] belongs above 2 µM; to `COc1ccc(-n2ncc3c(NC(=O)c4ccc([N+](=O)[O-])s4)nc(OC4CCCCC4)nc32)cc1` [Compound 6-16, N-(6-(cyclohexyloxy)-1-(4-methoxyphenyl)-1H-pyrazolo[3,4-d]pyrimidin-4-yl)-5-nitrothiophene-2-carboxamide], 1.36 µM. Same read-out and setting: to `O=C(Nc1nc(N2CCC[C@H]2CO)nc2c1cnn2-c1ccc(F)cc1)c1ccc([N+](=O)[O-])s1` [Compound 6-102, (S)—N-(1-(4-fluorophenyl)-6-(2-(hydroxymethyl)pyrrolidin-1-yl)-1H-pyrazolo[3,4-d]pyrimidin-4-yl)-5-nitrothiophene-2-carboxamide] belongs 1.3 µM; to `CC1CCC(c2nc(NC(=O)c3ccc([N+](=O)[O-])s3)c3cnn(-c4ccc(F)cc4)c3n2)CC1` (stereo not shown) [Compound 6-143, N-(1-(4-fluorophenyl)-6-(4-methylcyclohexyl)-1H-pyrazolo[3,4-d]pyrimidin-4-yl)-5-nitrothiophene-2-carboxamide], 1.02 µM. Turning to `CCOCCOCCOC[C@@H]1CCCN1c1nc(NC(=O)c2ccc([N+](=O)[O-])s2)c2cnn(-c3ccc(C(C)(C)C)cc3)c2n1` [Compound 6-72, (S)—N-(1-(4-(tert-butyl)phenyl)-6-(2-((2-(2-ethoxyethoxy)ethoxy)methyl)pyrrolidin-1-yl)-1H-pyrazolo[3,4-d]pyrimidin-4-yl)-5-nitrothiophene-2-carboxamide], the 50% lethal concentration (LC50) is 0.67 µM.

Take `CC1CCCN(c2nc(NC(=O)c3ccc([N+](=O)[O-])s3)c3cnn(-c4ccc(C(C)(C)C)cc4)c3n2)C1` (stereo not shown) [Compound 6-64, N-(1-(4-(tert-butyl)phenyl)-6-(3-methylpiperidin-1-yl)-1H-pyrazolo[3,4-d]pyrimidin-4-yl)-5-nitrothiophene-2-carboxamide]: the LC50 was 1.07 µM.

The same assay, now with this note: Homo sapiens, 48 h, Table 7, MTS, 2 days drug incubation, 50% reduction vs time zero, read-out: Hep3B LC50.
For `C=CC(=O)Nc1ccc(-n2ncc3c(NC(=O)c4ccc([N+](=O)[O-])s4)nc(-c4ccc(F)cc4)nc32)cc1` [Compound 7-19, N-(1-(4-acrylamidophenyl)-6-(4-fluorophenyl)-1H-pyrazolo[3,4-d]pyrimidin-4-yl)-5-nitrothiophene-2-carboxamide], the median lethal concentration (LC50) turned out to be 0.19 µM.

Still in this assay, the particulars now being: Homo sapiens, 48 h, Table 8, MTS, 2 days drug incubation, 50% reduction vs time zero, read-out: Hep3B LC50.
Regarding `CCOC(=O)N1CC[C@@H](n2ncc3c(NC(=O)c4ccc([N+](=O)[O-])s4)nc(-c4ccc(F)nc4)nc32)C1` [Compound 8-6, ethyl (R)-3-(6-(6-fluoropyridin-3-yl)-4-(5-nitrothiophene-2-carboxamido)-1H-pyrazolo[3,4-d]pyrimidin-1-yl)pyrrolidine-1-carboxylate], the 50% lethal concentration (LC50) was above 2 µM. Same read-out and setting: to `CC(C)(C)C(=O)N1CC[C@H](n2ncc3c(NC(=O)c4ccc([N+](=O)[O-])s4)nc(-c4ccc(F)nc4)nc32)C1` [Compound 8-4, (S)—N-(6-(6-fluoropyridin-3-yl)-1-(1-pivaloylpyrrolidin-3-yl)-1H-pyrazolo[3,4-d]pyrimidin-4-yl)-5-nitrothiophene-2-carboxamide] belongs 1.49 µM.

Staying with this assay, now noted: Homo sapiens, 48 h, Table 10, MTS, 2 days drug incubation, 50% reduction vs time zero, read-out: Hep3B LC50.
For the compound `CC1(C)CCC(n2ncc3c(NC(=O)c4ccc([N+](=O)[O-])s4)nc(-c4ccc(F)nc4)nc32)CC1` [Compound 10-62, N-(1-(4,4-dimethylcyclohexyl)-6-(6-fluoropyridin-3-yl)-1H-pyrazolo[3,4-d]pyrimidin-4-yl)-5-nitrothiophene-2-carboxamide], the LC50 was 0.71 µM.

As to `CC(=O)c1ccc(-c2nc(NC(=O)c3ccc([N+](=O)[O-])s3)c3cnn(C4CCCCC4)c3n2)cc1` [Compound 10-28, N-(6-(4-acetylphenyl)-1-cyclohexyl-1H-pyrazolo[3,4-d]pyrimidin-4-yl)-5-nitrothiophene-2-carboxamide], the 50% lethal concentration (LC50) turned out to be 1.93 µM. On the same count and under the same terms, as for `CCCOc1ccc(-c2nc(NC(=O)c3ccc([N+](=O)[O-])s3)c3cnn(C4CCC(F)(F)CC4)c3n2)cc1` [Compound 10-60, N-(1-(4,4-difluorocyclohexyl)-6-(4-propoxyphenyl)-1H-pyrazolo[3,4-d]pyrimidin-4-yl)-5-nitrothiophene-2-carboxamide], the figure is 0.83 µM; as for `O=C(Nc1nc(-c2cccs2)nc2c1cnn2C1CCCCC1)c1ccc([N+](=O)[O-])s1` [Compound 10-5, N-(1-cyclohexyl-6-(thiophen-2-yl)-1H-pyrazolo[3,4-d]pyrimidin-4-yl)-5-nitrothiophene-2-carboxamide], 0.75 µM; as for `COCc1ccc(-c2nc(NC(=O)c3ccc([N+](=O)[O-])s3)c3cnn(C4CCCCC4)c3n2)cc1` [Compound 10-30, N-(1-cyclohexyl-6-(4-(methoxymethyl)phenyl)-1H-pyrazolo[3,4-d]pyrimidin-4-yl)-5-nitrothiophene-2-carboxamide], 0.84 µM. The same measure, in the same setting: as for `O=C(Nc1nc(-c2ccc(Cl)cc2Cl)nc2c1cnn2C1CCCCC1)c1ccc([N+](=O)[O-])s1` [Compound 10-42], the figure is above 1.25 µM; as for `O=Cc1ccc(-c2nc(NC(=O)c3ccc([N+](=O)[O-])s3)c3cnn(C4CCCCC4)c3n2)cc1` [Compound 10-27, N-(1-cyclohexyl-6-(4-formylphenyl)-1H-pyrazolo[3,4-d]pyrimidin-4-yl)-5-nitrothiophene-2-carboxamide], 0.84 µM.
